Measured values as given in patent US6737383B1, “Herbicidal oxadiazolidines” (priority 1999, dated 2004).

Tests used:
blackgrass = assay: Test B pre/postemergence blackgrass; assay type: in vivo, Alopecurus myosuroides
Summary of the method: (§1)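 Response is a visual 0-to-10 score relative to untreated plants, where 0 means no effect and 10 means complete control, taken twelve to sixteen days after application. Treatments went onto soil at planting and onto foliage of 1- to 4-leaf plants, using a surfactant-containing non-phytotoxic solvent.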

morningglory = assay: Test B pre/postemergence morningglory; assay type: in vivo, Ipomoea hederacea
Summary of the method: as §1

crabgrass = assay: Test B pre/postemergence crabgrass; assay type: in vivo, Digitaria sanguinalis
Summary of the method: as §1

bamyardgrass = assay: Test B flood test barnyardgrass; assay type: in vivo, Echinochloa crus-galli
Summary of the method: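 Read-out is a visual response score from 0 (no effect) to 10 (complete control), assigned by comparison with untreated controls. Treatment was applied at the 2-leaf stage, and plants stayed in the greenhouse for twelve to sixteen days before scoring.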

[1] = Postemergence, Rate 250 g/ha, scale 0 to 10, 0 no effect, 10 complete control
[2] = Postemergence, Rate 1000 g/ha, scale 0 to 10 (0 no effect, 10 complete control)
[3] = Preemergence, Rate 125 g/ha, scale 0 to 10 (0 no effect, 10 complete control)
[4] = Preemergence, Rate 250 g/ha, scale of 0 to 10 where 0 is no effect and 10 is complete control
[5] = Preemergence, Rate 500 g/ha, scale 0 (no effect) to 10 (complete control)
[6] = Rate 125 g/ha, Postemergence, scale 0 to 10, 0 no effect, 10 complete control
[7] = Rate 500 g/ha, Postemergence, 0 to 10 scale (0 no effect, 10 complete control)
[8] = Rate 1000 g/ha, Preemergence, scale 0 to 10 (0 no effect, 10 complete control)
[9] = Rate 125 g/ha, Postemergence section (flood test species), scale 0 to 10, 0 no effect, 10 complete control
[10] = Rate 500 g/ha, Postemergence section of Table B, 0 to 10 scale (0 no effect, 10 complete control)
[11] = flood test, listed under Postemergence, Rate 250 g/ha, scale 0 to 10, 0 no effect, 10 complete control
[12] = Postemergence, Rate 62 g/ha, scale 0 to 10, 0 is no effect, 10 is complete control
[13] = Preemergence, Rate 62 g/ha, scale 0 to 10, 0 is no effect, 10 is complete control
[14] = Preemergence, Rate 62 g/ha, scale 0 to 10 (0 no effect, 10 complete control)
[15] = Rate 500 g/ha, Postemergence, scale 0 to 10, 0 no effect, 10 complete control
[16] = Rate 500 g/ha, listed under Postemergence (flood test species), scale 0 to 10, 0 no effect, 10 complete control
[17] = Postemergence, Rate 125 g/ha, scale of 0 to 10 where 0 is no effect and 10 is complete control

Structure (SMILES): CC(C)N(C(=O)n1oc(=O)n(-c2ccccc2Cl)c1=O)c1ccc(F)cc1 [Compound 8]
- Blackgrass plant response rating (blackgrass; [1]): 2
- Blackgrass plant response rating (blackgrass; [2]): 5
- Plant response rating, Blackgrass (blackgrass; [3]): 0
- Plant response rating, Blackgrass (blackgrass; [4]): 0
- Blackgrass plant response rating (blackgrass; [5]): 0
- Blackgrass plant response rating (blackgrass; [6]): 0
- Blackgrass plant response rating (blackgrass; [7]): 2
- Plant response rating, Blackgrass (blackgrass; [8]): 4
- Morningglory plant response rating (morningglory; [1]): 0
- Morningglory plant response rating (morningglory; [2]): 6
- Plant response rating, Morningglory (morningglory; [3]): 0
- Plant response rating, Morningglory (morningglory; [4]): 0
- Morningglory plant response rating (morningglory; [5]): 0
- Morningglory plant response rating (morningglory; [6]): 0
- Morningglory plant response rating (morningglory; [7]): 2
- Plant response rating, Morningglory (morningglory; [8]): 0
- Crabgrass plant response rating (crabgrass; [1]): 0
- Crabgrass plant response rating (crabgrass; [2]): 6
- Crabgrass plant response rating (crabgrass; [5]): 6
- Crabgrass plant response rating (crabgrass; [6]): 0
- Crabgrass plant response rating (crabgrass; [7]): 0
- Plant response rating, Crabgrass (crabgrass; [8]): 9
- Barnyardgrass plant response rating (bamyardgrass; [2]): 0
- Barnyardgrass plant response rating (bamyardgrass; [9]): 0
- Barnyardgrass plant response rating (bamyardgrass; [10]): 0
- Barnyardgrass plant response rating (bamyardgrass; [11]): 0

Structure (SMILES): CCN(CC)C(=O)n1oc(=O)n(-c2ccc(OC(F)(F)F)cc2)c1=O [Compound 12]
- Blackgrass plant response rating (blackgrass; [1]): 0
- Blackgrass plant response rating (blackgrass; [2]): 0
- Plant response rating, Blackgrass (blackgrass; [3]): 0
- Plant response rating, Blackgrass (blackgrass; [4]): 0
- Blackgrass plant response rating (blackgrass; [5]): 2
- Blackgrass plant response rating (blackgrass; [6]): 0
- Blackgrass plant response rating (blackgrass; [7]): 0
- Plant response rating, Blackgrass (blackgrass; [8]): 4
- Morningglory plant response rating (morningglory; [1]): 0
- Morningglory plant response rating (morningglory; [2]): 0
- Plant response rating, Morningglory (morningglory; [3]): 0
- Plant response rating, Morningglory (morningglory; [4]): 0
- Morningglory plant response rating (morningglory; [5]): 0
- Morningglory plant response rating (morningglory; [6]): 0
- Morningglory plant response rating (morningglory; [7]): 0
- Plant response rating, Morningglory (morningglory; [8]): 0
- Crabgrass plant response rating (crabgrass; [1]): 0
- Crabgrass plant response rating (crabgrass; [2]): 0
- Plant response rating, Crabgrass (crabgrass; [3]): 0
- Plant response rating, Crabgrass (crabgrass; [4]): 0
- Crabgrass plant response rating (crabgrass; [5]): 0
- Crabgrass plant response rating (crabgrass; [6]): 0
- Crabgrass plant response rating (crabgrass; [7]): 0
- Plant response rating, Crabgrass (crabgrass; [8]): 6
- Barnyardgrass plant response rating (bamyardgrass; [2]): 0
- Barnyardgrass plant response rating (bamyardgrass; [9]): 0
- Barnyardgrass plant response rating (bamyardgrass; [10]): 0
- Barnyardgrass plant response rating (bamyardgrass; [11]): 0

Structure (SMILES): Cc1ccccc1-n1c(=O)on(C(=O)N(c2ccc(F)cc2F)C(C)C)c1=O [Compound 25]
- Blackgrass plant response rating (blackgrass; [12]): 4
- Blackgrass plant response rating (blackgrass; [1]): 6
- Plant response rating, Blackgrass (blackgrass; [13]): 3
- Plant response rating, Blackgrass (blackgrass; [3]): 3
- Plant response rating, Blackgrass (blackgrass; [4]): 8
- Blackgrass plant response rating (blackgrass; [5]): 8
- Blackgrass plant response rating (blackgrass; [6]): 5
- Blackgrass plant response rating (blackgrass; [7]): 7
- Morningglory plant response rating (morningglory; [12]): 1
- Morningglory plant response rating (morningglory; [1]): 2
- Plant response rating, Morningglory (morningglory; [13]): 0
- Plant response rating, Morningglory (morningglory; [3]): 0
- Plant response rating, Morningglory (morningglory; [4]): 0
- Morningglory plant response rating (morningglory; [5]): 0
- Morningglory plant response rating (morningglory; [6]): 1
- Morningglory plant response rating (morningglory; [7]): 2
- Crabgrass plant response rating (crabgrass; [12]): 2
- Crabgrass plant response rating (crabgrass; [1]): 9
- Plant response rating, Crabgrass (crabgrass; [13]): 5
- Plant response rating, Crabgrass (crabgrass; [3]): 8
- Plant response rating, Crabgrass (crabgrass; [4]): 10
- Crabgrass plant response rating (crabgrass; [5]): 10
- Crabgrass plant response rating (crabgrass; [6]): 7
- Crabgrass plant response rating (crabgrass; [7]): 9
- Barnyardgrass plant response rating (bamyardgrass; [12]): 0
- Barnyardgrass plant response rating (bamyardgrass; [9]): 0
- Barnyardgrass plant response rating (bamyardgrass; [10]): 8
- Barnyardgrass plant response rating (bamyardgrass; [11]): 0

Structure (SMILES): Cc1ccccc1-n1c(=O)on(C(=O)N(c2cc(F)ccc2F)C(C)C)c1=O [Compound 68]
- Blackgrass plant response rating (blackgrass; [12]): 0
- Blackgrass plant response rating (blackgrass; [1]): 2
- Blackgrass plant response rating (blackgrass; [14]): 0
- Plant response rating, Blackgrass (blackgrass; [3]): 2
- Plant response rating, Blackgrass (blackgrass; [4]): 2
- Blackgrass plant response rating (blackgrass; [5]): 4
- Blackgrass plant response rating (blackgrass; [6]): 0
- Blackgrass plant response rating (blackgrass; [15]): 2
- Morningglory plant response rating (morningglory; [12]): 2
- Morningglory plant response rating (morningglory; [1]): 2
- Morningglory plant response rating (morningglory; [14]): 0
- Plant response rating, Morningglory (morningglory; [3]): 0
- Plant response rating, Morningglory (morningglory; [4]): 0
- Morningglory plant response rating (morningglory; [5]): 0
- Morningglory plant response rating (morningglory; [6]): 2
- Morningglory plant response rating (morningglory; [15]): 3
- Crabgrass plant response rating (crabgrass; [12]): 0
- Crabgrass plant response rating (crabgrass; [1]): 0
- Crabgrass plant response rating (crabgrass; [14]): 2
- Plant response rating, Crabgrass (crabgrass; [3]): 3
- Plant response rating, Crabgrass (crabgrass; [4]): 10
- Crabgrass plant response rating (crabgrass; [5]): 10
- Crabgrass plant response rating (crabgrass; [6]): 0
- Crabgrass plant response rating (crabgrass; [15]): 0
- Barnyardgrass plant response rating (bamyardgrass; [12]): 0
- Barnyardgrass plant response rating (bamyardgrass; [9]): 0
- Barnyardgrass plant response rating (bamyardgrass; [16]): 0
- Barnyardgrass plant response rating (bamyardgrass; [11]): 0

Structure (SMILES): CCN(C(=O)n1oc(=O)n(Cc2cccs2)c1=O)C1CCCCC1 [Compound 82]
- Blackgrass plant response rating (blackgrass; [12]): 0
- Blackgrass plant response rating (blackgrass; [1]): 0
- Blackgrass plant response rating (blackgrass; [14]): 0
- Plant response rating, Blackgrass (blackgrass; [3]): 0
- Plant response rating, Blackgrass (blackgrass; [4]): 0
- Blackgrass plant response rating (blackgrass; [5]): 0
- Blackgrass plant response rating (blackgrass; [6]): 0
- Blackgrass plant response rating (blackgrass; [15]): 3
- Morningglory plant response rating (morningglory; [12]): 4
- Morningglory plant response rating (morningglory; [1]): 10
- Morningglory plant response rating (morningglory; [14]): 0
- Plant response rating, Morningglory (morningglory; [3]): 0
- Plant response rating, Morningglory (morningglory; [4]): 0
- Morningglory plant response rating (morningglory; [5]): 0
- Morningglory plant response rating (morningglory; [6]): 7
- Morningglory plant response rating (morningglory; [15]): 10
- Crabgrass plant response rating (crabgrass; [12]): 0
- Crabgrass plant response rating (crabgrass; [1]): 0
- Crabgrass plant response rating (crabgrass; [14]): 0
- Plant response rating, Crabgrass (crabgrass; [3]): 0
- Plant response rating, Crabgrass (crabgrass; [4]): 0
- Crabgrass plant response rating (crabgrass; [5]): 0
- Crabgrass plant response rating (crabgrass; [6]): 0
- Crabgrass plant response rating (crabgrass; [15]): 0
- Barnyardgrass plant response rating (bamyardgrass; [12]): 0
- Barnyardgrass plant response rating (bamyardgrass; [9]): 0
- Barnyardgrass plant response rating (bamyardgrass; [16]): 0
- Barnyardgrass plant response rating (bamyardgrass; [11]): 0

Structure (SMILES): Cc1nn(C)c(Cl)c1-n1c(=O)on(C(=O)N(c2ccc(F)cc2)C(C)C)c1=O [Compound 95]
- Blackgrass plant response rating (blackgrass; [12]): 0
- Blackgrass plant response rating (blackgrass; [17]): 0
- Blackgrass plant response rating (blackgrass; [1]): 4
- Blackgrass plant response rating (blackgrass; [14]): 0
- Plant response rating, Blackgrass (blackgrass; [3]): 2
- Plant response rating, Blackgrass (blackgrass; [4]): 4
- Blackgrass plant response rating (blackgrass; [5]): 6
- Blackgrass plant response rating (blackgrass; [15]): 5
- Morningglory plant response rating (morningglory; [12]): 1
- Morningglory plant response rating (morningglory; [17]): 1
- Morningglory plant response rating (morningglory; [1]): 2
- Morningglory plant response rating (morningglory; [14]): 0
- Plant response rating, Morningglory (morningglory; [3]): 0
- Plant response rating, Morningglory (morningglory; [4]): 0
- Morningglory plant response rating (morningglory; [5]): 0
- Morningglory plant response rating (morningglory; [15]): 8
- Crabgrass plant response rating (crabgrass; [12]): 0
- Crabgrass plant response rating (crabgrass; [17]): 0
- Crabgrass plant response rating (crabgrass; [1]): 6
- Crabgrass plant response rating (crabgrass; [14]): 2
- Plant response rating, Crabgrass (crabgrass; [3]): 6
- Plant response rating, Crabgrass (crabgrass; [4]): 8
- Crabgrass plant response rating (crabgrass; [5]): 8
- Crabgrass plant response rating (crabgrass; [15]): 8
- Barnyardgrass plant response rating (bamyardgrass; [12]): 0
- Barnyardgrass plant response rating (bamyardgrass; [9]): 0
- Barnyardgrass plant response rating (bamyardgrass; [16]): 4
- Barnyardgrass plant response rating (bamyardgrass; [11]): 0
